In one assay the target is T1, IKZF1 (Homo sapiens, UniProt Q13422+Q96SW2).
T1 construct: expressed in transfected cells
Nature of the assay: HiBiT protein tagging assay, in vitro IKZF1 degradation (HEK293). The assay is classed as cell-based. As to conditions: HEK293, 18-24 hr incubation, normalized to DMSO control; for Dmax: read-out: IKZF1 Dmax (maximum degradation at the highest concentration tested); for DC50: read-out: IKZF1 EC50. In a few lines: (§1)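 Flp-In T-REx HEK293 pools stably expressing C-terminal HiBiT-tagged IKZF1 or IKZF2 were induced overnight with 1 μg/ml doxycycline. Cells were then treated with serially diluted compound for 18-24 hr at 37 °C and read by Nano-Glo lytic luminescence. Data were normalized to 0.5% DMSO as POC; EC50 and Dmax (maximum degradation at highest concentration tested) reported.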
On the technique in general: With HiBiT, luminescence reflects the tagged protein that the partner subunit can reach.

Another assay addresses T2, IKZF2 (Homo sapiens, UniProt Q96SW2+Q9UKS7).
T2 construct: expressed in transfected cells
Nature of the assay: HiBiT protein tagging assay, in vitro IKZF2 degradation (HEK293). In kind it is cell-based. As to conditions: HEK293, 18-24 hr incubation, normalized to DMSO control; for Dmax: HEK293, HiBiT assay, read-out: IKZF2 Dmax (maximum degradation at the highest concentration tested); for DC50: HiBiT assay, read-out: IKZF2 EC50. In outline:
as §1

A value given as a limit tells only on which side of the number the result lay.

T1 sequence (Q13422 whole entry): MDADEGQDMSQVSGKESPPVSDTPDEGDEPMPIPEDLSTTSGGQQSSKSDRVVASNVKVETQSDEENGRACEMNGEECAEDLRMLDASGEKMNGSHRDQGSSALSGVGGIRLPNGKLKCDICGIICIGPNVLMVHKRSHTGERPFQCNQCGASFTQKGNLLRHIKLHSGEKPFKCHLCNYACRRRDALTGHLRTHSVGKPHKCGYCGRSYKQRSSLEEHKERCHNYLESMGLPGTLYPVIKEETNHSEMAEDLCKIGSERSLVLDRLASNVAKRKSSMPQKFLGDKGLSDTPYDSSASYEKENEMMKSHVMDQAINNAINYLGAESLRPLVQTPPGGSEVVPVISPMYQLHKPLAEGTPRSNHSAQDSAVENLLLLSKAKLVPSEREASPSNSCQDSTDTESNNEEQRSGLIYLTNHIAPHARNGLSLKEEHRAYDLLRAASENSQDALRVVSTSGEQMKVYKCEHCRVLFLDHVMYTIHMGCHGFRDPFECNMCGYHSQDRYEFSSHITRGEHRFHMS
T1 sequence (Q96SW2 whole entry): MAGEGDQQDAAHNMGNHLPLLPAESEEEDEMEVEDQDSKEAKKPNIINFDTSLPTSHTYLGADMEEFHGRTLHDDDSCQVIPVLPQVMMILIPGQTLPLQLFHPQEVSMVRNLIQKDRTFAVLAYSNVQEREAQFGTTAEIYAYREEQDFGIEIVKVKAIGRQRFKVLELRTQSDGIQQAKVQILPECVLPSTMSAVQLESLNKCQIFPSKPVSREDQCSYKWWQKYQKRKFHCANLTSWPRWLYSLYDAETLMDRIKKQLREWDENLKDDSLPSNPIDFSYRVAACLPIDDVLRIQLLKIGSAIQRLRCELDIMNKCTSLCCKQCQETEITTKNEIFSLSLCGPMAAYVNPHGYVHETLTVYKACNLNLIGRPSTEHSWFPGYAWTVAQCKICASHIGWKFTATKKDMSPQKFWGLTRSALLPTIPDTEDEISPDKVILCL
T1 sequence (Q16531 whole entry partner): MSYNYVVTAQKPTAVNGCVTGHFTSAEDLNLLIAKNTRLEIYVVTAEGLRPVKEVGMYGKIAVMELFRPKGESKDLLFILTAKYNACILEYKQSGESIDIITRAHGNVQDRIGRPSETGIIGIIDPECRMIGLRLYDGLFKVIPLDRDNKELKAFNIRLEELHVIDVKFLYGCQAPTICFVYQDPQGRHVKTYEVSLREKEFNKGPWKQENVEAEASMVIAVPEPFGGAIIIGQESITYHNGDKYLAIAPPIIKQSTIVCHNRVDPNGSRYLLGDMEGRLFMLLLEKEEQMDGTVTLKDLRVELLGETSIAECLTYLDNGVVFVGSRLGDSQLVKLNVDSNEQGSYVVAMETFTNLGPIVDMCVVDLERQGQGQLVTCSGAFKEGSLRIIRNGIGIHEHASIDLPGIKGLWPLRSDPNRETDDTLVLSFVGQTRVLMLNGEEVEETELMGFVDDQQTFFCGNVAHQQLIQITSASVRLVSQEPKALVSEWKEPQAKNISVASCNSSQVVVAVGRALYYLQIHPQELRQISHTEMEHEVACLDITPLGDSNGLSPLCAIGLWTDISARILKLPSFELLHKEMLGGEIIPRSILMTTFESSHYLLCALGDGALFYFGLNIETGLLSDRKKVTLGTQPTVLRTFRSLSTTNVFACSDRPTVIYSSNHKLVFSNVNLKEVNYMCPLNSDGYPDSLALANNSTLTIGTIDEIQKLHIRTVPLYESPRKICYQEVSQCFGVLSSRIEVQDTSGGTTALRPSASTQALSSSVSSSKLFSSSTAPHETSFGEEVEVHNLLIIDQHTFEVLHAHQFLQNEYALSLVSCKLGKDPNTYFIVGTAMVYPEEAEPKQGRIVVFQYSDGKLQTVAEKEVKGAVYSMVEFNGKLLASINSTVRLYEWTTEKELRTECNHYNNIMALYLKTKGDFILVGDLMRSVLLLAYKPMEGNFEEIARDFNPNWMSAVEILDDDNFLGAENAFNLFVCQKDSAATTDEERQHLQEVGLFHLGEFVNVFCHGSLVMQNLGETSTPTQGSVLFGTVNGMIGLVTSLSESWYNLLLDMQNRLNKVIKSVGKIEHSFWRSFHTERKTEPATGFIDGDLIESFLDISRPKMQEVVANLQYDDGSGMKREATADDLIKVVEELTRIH
T2 sequence (Q9UKS7 1-500 isoform Q9UKS7-2): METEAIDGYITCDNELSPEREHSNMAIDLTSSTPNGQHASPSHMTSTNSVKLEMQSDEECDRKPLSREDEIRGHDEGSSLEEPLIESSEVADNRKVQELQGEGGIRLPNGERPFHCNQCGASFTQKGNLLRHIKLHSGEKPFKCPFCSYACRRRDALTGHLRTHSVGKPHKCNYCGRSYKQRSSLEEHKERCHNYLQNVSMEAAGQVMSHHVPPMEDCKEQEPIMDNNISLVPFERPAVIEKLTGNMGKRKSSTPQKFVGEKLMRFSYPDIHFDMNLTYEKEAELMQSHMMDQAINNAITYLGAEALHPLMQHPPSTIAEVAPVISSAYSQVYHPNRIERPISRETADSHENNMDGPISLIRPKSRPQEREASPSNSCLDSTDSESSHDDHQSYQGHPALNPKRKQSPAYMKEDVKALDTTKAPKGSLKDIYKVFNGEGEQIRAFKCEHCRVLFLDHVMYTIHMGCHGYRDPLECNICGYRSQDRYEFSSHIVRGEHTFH
T2 sequence (Q96SW2 whole entry): as the sequence (Q96SW2 whole entry) above
T2 sequence (Q16531 whole entry partner): as the sequence (Q16531 whole entry partner) above

On to `O=C1CCC(N2Cc3cc(CN[C@H]4CC[C@@](O)(c5ccccc5)CC4)ccc3C2=O)C(=O)N1` (stereo partly shown) [Example 66], for which the Dmax was 77% on IKZF1 and 83% on IKZF2. For the same molecule, the DC50 was 102 nM at IKZF1 and 319 nM on IKZF2.

`O=C1CCC(N2Cc3cc(CN[C@@H]4CCCC[C@H]4Cc4ccccc4)ccc3C2=O)C(=O)N1` (stereo partly shown) [Example 67]: on IKZF1, the Dmax came out at 73% and the DC50 worked out at 46 nM. At IKZF2, the Dmax is 75% and the DC50 stood at 160 nM.

On to `O=C1CCC(N2Cc3cc(CN[C@@H]4CCCC[C@@H]4Cc4ccccc4)ccc3C2=O)C(=O)N1` (stereo partly shown) [Example 68], for which, on IKZF1, the Dmax is 68% and the DC50 turned out to be 70 nM. At IKZF2, the Dmax stood at 68% and the DC50 was determined as 154 nM.

Take `O=C1CCC(N2Cc3cc(CNC4CCC(Cc5ccccc5)C4)ccc3C2=O)C(=O)N1` (stereo not shown) [Example 69]: at IKZF1, the Dmax worked out at 57% and the DC50 was determined as 66 nM. On IKZF2, the Dmax came out at 68% and the DC50 was determined as 113 nM.

Consider `O=C1CCC(N2Cc3cc(CNC4CCc5cccnc5C4)ccc3C2=O)C(=O)N1` (stereo not shown) [Example 70, 3-(1-oxo-5-(((5,6,7,8-tetrahydroquinolin-7-yl)amino)methyl)isoindolin-2-yl)piperidine-2,6-dione], for which, at IKZF1, the Dmax was 42% and the DC50 came to 89 nM. For the same molecule, at IKZF2, the Dmax was found to be 67% and the DC50 came to 303 nM.

As to `O=C1CCC(N2Cc3cc(CN[C@@H]4C[C@@H]5CC[C@H]4C5)ccc3C2=O)C(=O)N1` (stereo partly drawn) [Example 71, 3-(5-((((1S,2R,4R)-bicyclo[2.2.1]heptan-2-yl)amino)methyl)-1-oxoisoindolin-2-yl)piperidine-2,6-dione], at IKZF1, the Dmax was found to be 33% and the DC50 came to 170 nM. For the same molecule, on IKZF2, the Dmax is 36% and the DC50 came to 297 nM.

Take `O=C1CCC(N2Cc3cc(CN[C@H]4C[C@H]5CC[C@@H]4C5)ccc3C2=O)C(=O)N1` (stereo partly shown) [Example 72]: the DC50 at IKZF1 was > 10000 nM. Further, at IKZF2, the Dmax was found to be 23% and the DC50 was determined as 389 nM.

On to `O=C1CCC(N2Cc3cc(CN[C@@H]4CCCC[C@H]4CO)ccc3C2=O)C(=O)N1` (stereo partly drawn) [Example 73, 3-(5-((((1R,2R)-2-(hydroxymethyl)cyclohexyl)amino)methyl)-1-oxoisoindolin-2-yl)piperidine-2,6-dione], for which, on IKZF1, the Dmax was found to be 34% and the DC50 is 5800 nM. In addition, at IKZF2, the Dmax worked out at 31% and the DC50 amounted to 1200 nM.

With `O=C1CCC(N2Cc3cc(CNC4CC5CC(C5)C4)ccc3C2=O)C(=O)N1` (stereo not shown) [Example 74], at IKZF1, the Dmax is 53% and the DC50 stood at 52 nM. At IKZF2, the Dmax amounted to 82% and the DC50 worked out at 48 nM.

As for `CCCO[C@H]1CC[C@H](NCc2ccc3c(c2)CN(C2CCC(=O)NC2=O)C3=O)CC1` (stereo partly shown) [Example 75], the Dmax was 49% at IKZF1 and 90% on IKZF2. Further, the DC50 at IKZF1 was found to be 127 nM; on IKZF2 it was 100 nM.

Regarding `CO[C@H]1CC[C@H](NCc2ccc3c(c2)CN(C2CCC(=O)NC2=O)C3=O)CC1` (stereo partly shown) [Example 76], at IKZF1, the Dmax amounted to 51% and the DC50 was found to be 184 nM. Moreover, at IKZF2, the Dmax worked out at 90% and the DC50 was determined as 144 nM.

As for `O=C1CCC(N2Cc3cc(CN[C@H]4CC[C@H](C(F)(F)F)CC4)ccc3C2=O)C(=O)N1` (stereo partly shown) [Example 77], on IKZF1, the Dmax was found to be 59% and the DC50 was found to be 144 nM. Moreover, on IKZF2, the Dmax is 74% and the DC50 worked out at 171 nM.

For `C[C@H]1CCCC[C@H]1NCc1ccc2c(c1)CN(C1CCC(=O)NC1=O)C2=O` (stereo partly shown) [Example 78], the Dmax turned out to be 30% on IKZF1 and 81% on IKZF2. Besides, the DC50 at IKZF1 worked out at 1700 nM; on IKZF2, 115 nM.

Consider `CCCC[C@H]1CC[C@H](NCc2ccc3c(c2)CN(C2CCC(=O)NC2=O)C3=O)CC1` (stereo partly shown) [Example 79], for which, on IKZF1, the Dmax is 30% and the DC50 worked out at 169 nM. For the same molecule, on IKZF2, the Dmax amounted to 69% and the DC50 was found to be 218 nM.

Take `N#C[C@H]1CC[C@H](NCc2ccc3c(c2)CN(C2CCC(=O)NC2=O)C3=O)CC1` (stereo partly shown) [Example 80]: on IKZF1, the Dmax came out at 57% and the DC50 was 253 nM. On IKZF2, the Dmax is 92% and the DC50 came out at 166 nM.

As to `O=C1CCC(N2Cc3cc(CN[C@H]4CCC[C@@H](O)C4)ccc3C2=O)C(=O)N1` (stereo partly shown) [Example 81], the Dmax at IKZF1 was 45%; on IKZF2, 67%. The DC50 on IKZF1 amounted to 762 nM; on IKZF2, 1300 nM.

In the case of `O=C1CCC(N2Cc3cc(CN[C@@H]4CCC[C@H](O)C4)ccc3C2=O)C(=O)N1` (stereo partly shown) [Example 82], the DC50 on IKZF1 was > 10000 nM. Moreover, at IKZF2, the Dmax was 71% and the DC50 came out at 1300 nM.

Take `O=C1CCC(N2Cc3cc(CNC4CCC5(CCCCC5)CC4)ccc3C2=O)C(=O)N1` (stereo not shown) [Example 83]: at IKZF1, the Dmax amounted to 42% and the DC50 was 84 nM. Moreover, on IKZF2, the Dmax was found to be 69% and the DC50 was found to be 106 nM.

Consider `O=C1CCC(N2Cc3cc(CNC4CCC5(CCCC5)CC4)ccc3C2=O)C(=O)N1` (stereo not shown) [Example 84], for which, at IKZF1, the Dmax was determined as 55% and the DC50 was determined as 64 nM. Also, at IKZF2, the Dmax turned out to be 79% and the DC50 was found to be 46 nM.

As for `O=C1CCC(N2Cc3cc(CN[C@H]4CC[C@@H](C(F)(F)F)CC4)ccc3C2=O)C(=O)N1` (stereo partly shown) [Example 85], on IKZF1, the Dmax stood at 44% and the DC50 was 117 nM. For the same molecule, on IKZF2, the Dmax came to 81% and the DC50 was 114 nM.

Regarding `CO[C@H]1CC[C@@H](NCc2ccc3c(c2)CN(C2CCC(=O)NC2=O)C3=O)CC1` (stereo partly shown) [Example 86], on IKZF1, the Dmax turned out to be 73% and the DC50 was 70 nM. Further, at IKZF2, the Dmax was found to be 83% and the DC50 was 123 nM.

In the case of `N#C[C@H]1CC[C@@H](NCc2ccc3c(c2)CN(C2CCC(=O)NC2=O)C3=O)CC1` (stereo partly shown) [Example 87], on IKZF1, the Dmax is 86% and the DC50 turned out to be 84 nM. On IKZF2, the Dmax was 89% and the DC50 was found to be 182 nM.

As for `O=C1CCC(N2Cc3cc(CNC4CCC5(CCOCC5)CC4)ccc3C2=O)C(=O)N1` (stereo not shown) [Example 88], the results for the Dmax on IKZF1 and at IKZF2 were 64% and 91%, respectively. Further, the DC50 came out at 297 nM on IKZF1 and 296 nM at IKZF2.

Regarding `C[C@H]1CC[C@@H](NCc2ccc3c(c2)CN(C2CCC(=O)NC2=O)C3=O)CC1` (stereo partly shown) [Example 89], on IKZF1, the Dmax turned out to be 42% and the DC50 was 127 nM. Also, at IKZF2, the Dmax was 76% and the DC50 was 139 nM.

Take `O=C1CCC(N2Cc3cc(CN[C@@H]4CCC[C@H](Nc5ccccc5)C4)ccc3C2=O)C(=O)N1` (stereo partly shown) [Example 90]: on IKZF1, the Dmax is 88% and the DC50 came to 30 nM. Also, on IKZF2, the Dmax came out at 92% and the DC50 is 95 nM.

Take `O=C1CCC(N2Cc3cc(CN[C@H]4CCC[C@@H](Nc5ccccc5)C4)ccc3C2=O)C(=O)N1` (stereo partly shown) [Example 91]: at IKZF1, the Dmax stood at 63% and the DC50 stood at 116 nM. For the same molecule, at IKZF2, the Dmax came to 73% and the DC50 is 333 nM.

Consider `O=C1CCC(N2Cc3cc(CN[C@@H]4CCC[C@H](Oc5ccccc5)C4)ccc3C2=O)C(=O)N1` (stereo partly shown) [Example 92], for which, at IKZF1, the Dmax was 61% and the DC50 was 16 nM. Moreover, at IKZF2, the Dmax turned out to be 85% and the DC50 was 41 nM.

For the molecule `N#CC1CCCC(NCc2ccc3c(c2)CN(C2CCC(=O)NC2=O)C3=O)C1` (stereo not drawn) [Example 93, (1,3-trans)-3-(((2-(2,6-dioxopiperidin-3-yl)-1-oxoisoindolin-5-yl)methyl)amino)cyclohexane-1-carbonitrile], at IKZF1, the Dmax turned out to be 29% and the DC50 came to 252 nM. Besides, at IKZF2, the Dmax was 59% and the DC50 came to 26 nM.

With `O=C1CCC(N2Cc3cc(CN[C@@H]4CC5CCC4CC5)ccc3C2=O)C(=O)N1` (stereo partly drawn) [Example 94, 3-(5-((((R)-bicyclo[2.2.2]octan-2-yl)amino)methyl)-1-oxoisoindolin-2-yl)piperidine-2,6-dione], on IKZF1, the DC50 is > 10000 nM. Moreover, at IKZF2, the Dmax was determined as 55% and the DC50 worked out at 178 nM.

Consider `O=C1CCC(N2Cc3cc(CN[C@H]4CC5CCC4CC5)ccc3C2=O)C(=O)N1` (stereo partly drawn) [Example 95, 3-(5-((((S)-bicyclo[2.2.2]octan-2-yl)amino)methyl)-1-oxoisoindolin-2-yl)piperidine-2,6-dione], for which the DC50 on IKZF1 was > 10000 nM. Further, at IKZF2, the Dmax amounted to 49% and the DC50 stood at 361 nM.

For the molecule `NC(=O)C1CCCC(NCc2ccc3c(c2)CN(C2CCC(=O)NC2=O)C3=O)C1` (stereo not drawn) [Example 96, (1,3-cis)-3-(((2-(2,6-dioxopiperidin-3-yl)-1-oxoisoindolin-5-yl)methyl)amino)cyclohexane-1-carboxamide], at IKZF1, the Dmax was found to be 66% and the DC50 turned out to be 3800 nM. Further, at IKZF2, the Dmax is 61% and the DC50 was 3800 nM.

As for `O=C1CCC(N2Cc3cc(CNC4CCCC(CO)C4)ccc3C2=O)C(=O)N1` (stereo not drawn) [Example 97, 3-(5-((((1,3-trans)-3-(hydroxymethyl)cyclohexyl)amino)methyl)-1-oxoisoindolin-2-yl)piperidine-2,6-dione], at IKZF1, the Dmax stood at 64% and the DC50 is 5100 nM. At IKZF2, the Dmax turned out to be 66% and the DC50 stood at 1800 nM.

(Values after patent publication US20240124412A1, “IKAROS ZINC FINGER FAMILY DEGRADERS AND USES THEREOF” (Gilead Sciences, Inc., priority 2021, published 2024).)
